The record followed here is ChEMBL document CHEMBL3243921, “2-Pyrrolidinylideneureas, a new class of central nervous system agents” (J Med Chem, 1978).

Data set [1] concerns Mus musculus. Kind of data set: Muscle relaxant activity in po dosed mouse assessed as blockade of pentylenetetrazol-induced tonic extensor seizure. The data set is classed as functional.
Data set [2] relates to Mus musculus. Kind of data set: Muscle relaxant activity in po dosed mouse assessed as increase in strychnine-induced persistant convulsive threshold. It is filed as functional.
Data set [3] has as its system Mus musculus. Nature of the data set: Anticonvulsant activity in po dosed mouse assessed as blockade of supramaximal electroshock-induced […] seizure. The data set is classed as functional.
In the next data set the test system is Rattus norvegicus. Kind of data set: Antianxiety activity in ip dosed rat assessed as effect on increase in punished responses administered qd for 5 days measured every day for 5 days. It is filed as functional. Conditions: for minimal effective dose: 120 h, read-out: MED.
The nature of data set [4]: Acute toxicity in po dosed mouse assessed as mortality administered as qd for 6 days measured on day 7 post last dose. It is filed as organism-based. Conditions: in vivo.
The subject of data set [5] is Mus musculus. Kind of data set: Acute toxicity in po dosed mouse assessed as concentration required to produce 50% loss of righting reflex administered as qd for 4 days measured for 1 min post last dose. Conditions: in vivo. The data set is classed as organism-based.
The nature of data set [6]: Ratio of LD50 for po dosed mouse to PD50 for acute toxicity in po dosed mouse assessed as concentration required to produce 50% loss of righting reflex. The data set is classed as organism-based. Conditions: in vivo.
The test system of data set [7] is Mus musculus. Kind of data set: Hypnotic activity in po dosed mouse assessed as increase in pentylenetetrazol-induced persistent-convulsive threshold. The data set is classed as functional, organism-based.
Data set [8] relates to Mus musculus. Kind of data set: Sedative-hypnotic activity in po dosed mouse assessed as increase in pentylenetetrazol-induced persistent-convulsive threshold. The data set is classed as functional, organism-based.

Active and inactive are the calls of the source.

In general, LD50 refers to the dose expected to kill half of the subjects tested. For the molecule `COc1cccc(NC(=O)/N=C2\CCC(C)N2C)c1` (stereo not drawn), the values for the MED20 with Mus musculus [1] and in the data set on Mus musculus [3] were 68 mg/kg and 135 mg/kg, respectively. In the data set with Mus musculus [2], the MED25 is 160 mg/kg. In addition, the minimal effective dose with Rattus norvegicus is over 25 mg/kg. Also, the median lethal dose (LD50) at 144 h in data set [4] was 1900 mg/kg. The PD50 with Mus musculus [5] worked out at 680 mg/kg. For the same molecule, the selectivity ratio in [6] turned out to be 1.5.

For `CCC1(c2ccccc2)C(=O)NC(=O)NC1=O` [PHENOBARBITAL], the selectivity ratio in data set [6] is 3.

For `CCCCN1CCC/C1=N\C(=O)Nc1cccc(Cl)c1`, the outcome in the data set on Mus musculus [1], with Mus musculus [7], in the data set with Mus musculus [2], with Mus musculus [3], in the data set with Rattus norvegicus and with Mus musculus [8] was inactive.

With `CC1/C(=N\C(=O)Nc2ccccc2)N(C)CC1c1ccccc1` (stereo not drawn), the result with Mus musculus [1], in the data set with Mus musculus [7], in the data set on Mus musculus [2], in the data set with Mus musculus [3], in the data set with Rattus norvegicus and in the data set on Mus musculus [8] was inactive.

Regarding `O=C(/N=C1\CCCCCN1)Nc1ccccc1`, the outcome with Mus musculus [1], in the data set on Mus musculus [7], in the data set with Mus musculus [2], with Mus musculus [3], in the data set with Rattus norvegicus and with Mus musculus [8] was inactive.

As for `CN1CCC/C1=N\C(=O)Nc1cccc(I)c1`, the MED20 in the data set with Mus musculus [1] was 36 mg/kg; in the data set with Mus musculus [3], 112 mg/kg. Besides, the MED25 with Mus musculus [2] was 86 mg/kg. In addition, the minimal effective dose in the data set on Rattus norvegicus was over 25 mg/kg. In addition, in data set [4], the 50% lethal dose (LD50) at 144 h is over 1000 mg/kg. Besides, the PD50 in the data set on Mus musculus [5] is over 820 mg/kg.

In the case of `CN1CC(c2ccccc2)C/C1=N\C(=O)Nc1ccccc1` (stereo not drawn), the result in the data set with Mus musculus [1], in the data set on Mus musculus [7], with Mus musculus [2], in the data set with Mus musculus [3], with Rattus norvegicus and in the data set on Mus musculus [8] was inactive.

As to `CC1/C(=N\C(=O)Nc2cccc(Cl)c2)N(C)CC1c1ccccc1` (stereo not drawn), the result in the data set on Mus musculus [1], in the data set with Mus musculus [7], in the data set with Mus musculus [2], in the data set on Mus musculus [3], in the data set with Rattus norvegicus and with Mus musculus [8] was inactive.

`Cc1ccccc1NC(=O)/N=C1\CCCN1C`: the outcome in the data set with Mus musculus [1], in the data set with Mus musculus [7], in the data set with Mus musculus [2], in the data set on Mus musculus [3], in the data set on Rattus norvegicus and in the data set on Mus musculus [8] was Active.

Take `O=C(/N=C1\CCCN1Cc1ccccc1)Nc1cccc(Cl)c1`: the result in the data set on Mus musculus [1], in the data set on Mus musculus [7], in the data set with Mus musculus [2], with Mus musculus [3], with Rattus norvegicus and in the data set with Mus musculus [8] was inactive.

As for `CN1CC(c2ccccc2)C/C1=N\C(=O)Nc1cccc(Cl)c1` (stereo not drawn), the outcome with Mus musculus [1], with Mus musculus [7], in the data set with Mus musculus [2], in the data set on Mus musculus [3], with Rattus norvegicus and in the data set on Mus musculus [8] was inactive.

On to `CN1CCCCC/C1=N\C(=O)Nc1ccccc1`, for which the outcome with Mus musculus [1], with Mus musculus [7], in the data set on Mus musculus [2], in the data set on Mus musculus [3], with Rattus norvegicus and in the data set on Mus musculus [8] was inactive.

Consider `Cc1cccc(C)c1NC(=O)/N=C1\CCC(C)N1C` (stereo not drawn), for which the result in the data set with Mus musculus [1], in the data set on Mus musculus [7], with Mus musculus [2], in the data set on Mus musculus [3], in the data set on Rattus norvegicus and with Mus musculus [8] was inactive.

Take `CN1CC(C)(C)C/C1=N\C(=O)Nc1ccccc1`: the outcome in the data set on Mus musculus [1], in the data set on Mus musculus [7], in the data set with Mus musculus [2], in the data set on Mus musculus [3], in the data set with Rattus norvegicus and with Mus musculus [8] was inactive.

Consider `CCCCN1CCC/C1=N\C(=O)Nc1c(C)cccc1C`, for which the outcome in the data set on Mus musculus [1], in the data set with Mus musculus [7], with Mus musculus [2], with Mus musculus [3], with Rattus norvegicus and in the data set with Mus musculus [8] was inactive.

With `CC(C)c1ccccc1NC(=O)/N=C1\CCCN1C`, the result in the data set on Mus musculus [1], in the data set with Mus musculus [7], with Mus musculus [2], in the data set with Mus musculus [3], in the data set with Rattus norvegicus and in the data set with Mus musculus [8] was Active.

Take `Cc1cccc(C)c1NC(=O)/N=C1\CCCN1Cc1ccccc1`: the result in the data set on Mus musculus [1], with Mus musculus [7], in the data set on Mus musculus [2], in the data set on Mus musculus [3], in the data set on Rattus norvegicus and in the data set with Mus musculus [8] was inactive.

With `Cc1cccc(C)c1NC(=O)/N=C1\CC(c2ccccc2)CN1C` (stereo not drawn), the outcome in the data set with Mus musculus [1], in the data set with Mus musculus [7], in the data set with Mus musculus [2], with Mus musculus [3], in the data set on Rattus norvegicus and in the data set on Mus musculus [8] was inactive.

In the case of `CN1CCCCC/C1=N\C(=O)Nc1c(Cl)cccc1Cl`, the result with Mus musculus [1], in the data set with Mus musculus [7], with Mus musculus [2], in the data set on Mus musculus [3], in the data set on Rattus norvegicus and with Mus musculus [8] was inactive.

For `O=C(/N=C1\CCCCCN1)Nc1c(Cl)cccc1Cl`, the result with Mus musculus [1], in the data set on Mus musculus [7], in the data set on Mus musculus [2], with Mus musculus [3], with Rattus norvegicus and with Mus musculus [8] was inactive.

Consider `Cc1cccc(C)c1NC(=O)/N=C1\CCCCCN1C`, for which the outcome in the data set on Mus musculus [1], in the data set on Mus musculus [7], in the data set on Mus musculus [2], in the data set with Mus musculus [3], with Rattus norvegicus and in the data set on Mus musculus [8] was inactive.

Turning to `CN1CCC/C1=N\C(=O)Nc1ccccc1Cl`, the result in the data set on Mus musculus [1], in the data set with Mus musculus [7], in the data set on Mus musculus [2], in the data set with Mus musculus [3], with Rattus norvegicus and in the data set on Mus musculus [8] was Active.
